# From patent US20240099994A1, “LONG-ACTING INJECTABLE FORMULATIONS OF KETAMINE PAMOATE SALTS” (ALAR PHARMACEUTICAL INC., priority 2019, published 2024)
# Structures can show the parent of a compound that is named as a salt. Where two headings read alike, the source gives them in different places.
# Key:
# ICR mice = test: Sedation behavior by rodent sedation rating scale; assay type: in vivo; settings: SC, 120 mg/kg ketamine free-base; for Sedation behavior (rodent sedation rating scale): immediately post administration to 28 days
# Procedure: (§1) FIG. 43 is a diagram illustrating the protocol of dexamethasone (DEX)-induced depression-like animal model to evaluate the antidepressant effects of ketamine HCl (KET), R, S-ketamine pamoate salt (KEP), S-ketamine pamoate salt (S-KEP), and R-ketamine pamoate salt (R-KEP). ICR mice were intraperitoneally injected with saline or DEX at postnatal day 1 to 3 (P1 to P3) with dose decrement of 0.5 mg/kg, 0.3 mg/kg, and 0.1 mg/kg, respectively. The drugs for each group or saline group were administered subcutaneously at day 35 (P35, i.e., dosing day 0, D0), and the forced swimming test (FST) were conducted every 10 days from dosing day 1 (D1, P36) to P98. Evaluation of sedation behavior was also conducted by sedation rating scale from the time immediately post injection to dosing day 28 after drug administration.
# Furthermore, sedation behavior was also evaluated by rodent sedation rating scale (Table 28) immediately post drug administration to 28 days in this study.
# [1] = test system: DEX-induced depression-like animal model; test: Forced swimming test (FST) in dexamethasone (DEX)-induced depression-like animal model; assay type: in vivo, ICR mice; settings: DEX-treated mice, SC, 120 mg/kg ketamine free-base; for Immobility time on FST: 1 day after administration
# Procedure: as §1
# Depression-like animal model induced by dexamethasone (hereinafter abbreviated as DEX) was used to evaluate the antidepressant effects of ketamine HCl (KET), R, S-ketamine pamoate salt (KEP), S-ketamine pamoate salt (S-KEP), and R-ketamine pamoate salt (R-KEP) at equivalent dose (120 mg/kg ketamine free-base). According to literature, depressive-like behaviors were observed on juvenile mice and adult mice which neonatally exposed to DEX. Protocol of this example was shown in FIG. 43 and described in detail below.
# Neonatal ICR mice were intraperitoneally injected with saline or DEX on postnatal day 1, 2, and 3 (P1 to P3) at doses of 0.5 mg/kg, 0.3 mg/kg, and 0.1 mg/kg, respectively. The mice received saline were called as Control group, and the mice received DEX were divided into the groups of KET, KEP, S-KEP, R-KEP and Saline (n=10 to 14 mice in each group). The mice of KET, KEP, S-KEP, and R-KEP groups were subcutaneously injected with KET formulation, the formulation AS04 comprising KEP, the formulation AS06 comprising S-KEP, and the formulation AS07 comprising R-KEP at postnatal day 35, respectively. The KET formulation was 20% (w/w) ketamine HCl dissolved in 0.9% saline. The formulations AS04, AS06 and AS07 were prepared in Example 18. Saline group mice were subcutaneously injected with equal volumes of 0.9% saline.
# Antidepressant effects were evaluated by forced swimming test (FST), which performed about every 10 days from the first day (P36) to the 63rd day (P98) after drug administration. All groups of mice were trained for swimming before drug administration. During the FST, mice were individually placed into 5 L glass cylinders (height 27 cm, diameter 18 cm) filled with 4 L of water (23±1° C.). The total duration of immobility time during 5 minutes of FST was observed. Results were presented as mean±SEM. Student's t-test was analyzed with the Saline group (DEX-treated mouse group injected with saline) versus the other groups at each time point. *p<0.05, **p<0.01, ***p<0.001, and ****p<0.0001 indicate significant differences compared to the Saline group.
# [2] = Intrinsic dissolution rate, rotating disk method (USP Chapter 1087); assay type: physicochemical; settings: for Intrinsic dissolution rate: 50 rpm, average of three samples; for BCS solubility classification: pH 7.4 medium
# Procedure: The intrinsic dissolution rate of the crystal and amorphous forms of ketamine pamoate salts was determined by using the intrinsic dissolution rotating disk method described in Chapter 1087 of the U.S. Pharmacopeia under the conditions of medium pH as 1.2, 4.5, 6.8 or 7.4, medium volume as 900 mL, rotating speed as 50 rpm, medium temperature as 37° C., and detection wavelength as 210 nm. The results were shown in Tables 7 and 8 and FIGS. 27 to 29.
# [3] = in water; cited from earlier work
# [4] = Solubility test (USP guidance) in different pH media
# [5] = pH 4.5, 1% polysorbate 20 in medium, 37° C.
# [6] = pH 6.8, 1% polysorbate 20 in medium, 37° C.
# [7] = pH 7.4, 1% polysorbate 20 in medium, 37° C.
smiles,measurement,setting,value
"CNC1(c2ccccc2Cl)CCCCC1=O (stereo not drawn) [R,S-ketamine HCl, R, S-ketamine hydrochloride, reference compound]",Time to full recovery from sedation-related behavior post administration,ICR mice,2 h
same,Sedation behavior (rodent sedation rating scale),ICR mice,mild sedation-related behavior
same,Antidepressant effects on FST after single injection,[1],rapid-onset antidepressant effects
same,Immobility time on FST,[1],reduced the immobility time
same,Intrinsic dissolution rate,"[2]; pH 1.2, 37° C.",5.329 mg/min/cm^2
same,Intrinsic dissolution rate,[2]; [5],3.729 mg/min/cm^2
same,Intrinsic dissolution rate,[2]; [6],2.918 mg/min/cm^2
same,Intrinsic dissolution rate,[2]; [7],1.740 mg/min/cm^2
same,Solubility,[3],> 200000 µg/mL
"CNC1(c2ccccc2Cl)CCCCC1=O.CNC1(c2ccccc2Cl)CCCCC1=O.O=C(O)c1cc2ccccc2c(Cc2c(O)c(C(=O)O)cc3ccccc23)c1O [R,S-ketamine pamoate salt (Amorphous, ratio 2:1)] [R, S-ketamine pamoate salt]",Intrinsic dissolution rate,[2]; [7],0.024 mg/min/cm^2
same,BCS solubility classification,[2],Low
same,Solubility,"[4]; pH 1.2 medium, listed as R,S-ketamine pamoate salt (Ratio 2:1) Amorphous",1310 µg/mL
same,Solubility,"[4]; pH 4.5 medium, listed as R,S-ketamine pamoate salt (Ratio 2:1) Amorphous",870 µg/mL
same,Solubility,[4]; pH 6.8 medium,160 µg/mL
same,Solubility,"[4]; pH 7.4 medium, listed as R,S-ketamine pamoate salt (Ratio 2:1) Amorphous",180 µg/mL
"CNC1(c2ccccc2Cl)CCCCC1=O.CNC1(c2ccccc2Cl)CCCCC1=O.O=C(O)c1cc2ccccc2c(Cc2c(O)c(C(=O)O)cc3ccccc23)c1O [R,S-ketamine pamoate salt (Crystal, ratio 2:1)] [R, S-ketamine pamoate salt]",Sedation or other ketamine-related psychotomimetic effects and nervous system disorders post administration,ICR mice,would not occur
same,Sedation behavior (rodent sedation rating scale),ICR mice,normal behavior
same,Antidepressant effects on FST after single injection,[1],rapid-onset antidepressant effects
same,Immobility time on FST,[1],reduced the immobility time
same,Intrinsic dissolution rate,"[2]; pH 1.2, 37° C.",0.095 mg/min/cm^2
same,Intrinsic dissolution rate,[2]; [5],0.005 mg/min/cm^2
same,Intrinsic dissolution rate,[2]; [6],0.011 mg/min/cm^2
same,Intrinsic dissolution rate,[2]; [7],0.012 mg/min/cm^2
same,Solubility,"[4]; pH 1.2 medium, listed as R, S-ketamine pamoate salt",1680 µg/mL
same,Solubility,"[4]; pH 4.5 medium, listed as R,S-ketamine pamoate salt (Ratio 2:1) Crystal",1080 µg/mL
same,Solubility,[4]; pH 6.8 medium,160 µg/mL
same,Solubility,"[4]; pH 7.4 medium, listed as R,S-ketamine pamoate salt (Ratio 2:1) Crystal",220 µg/mL
CNC1(c2ccccc2Cl)CCCCC1=O.O=C(O)c1cc2ccccc2c(Cc2c(O)c(C(=O)O)cc3ccccc23)c1O [R- or S-ketamine pamoate salt],Solubility,[4]; pH 1.2 medium,720 µg/mL
same,Solubility,[4]; pH 4.5 medium,450 µg/mL
same,Solubility,[4]; pH 6.8 medium,70 µg/mL
same,Solubility,[4]; pH 7.4 medium,80 µg/mL
"CNC1(c2ccccc2Cl)CCCCC1=O.Cl (stereo not drawn) [R-ketamine HCl, R-ketamine hydrochloride, reference compound]",Intrinsic dissolution rate,[2]; [7],2.356 mg/min/cm^2
same,BCS solubility classification,[2],High
"CN[C@@]1(c2ccccc2Cl)CCCCC1=O [R-ketamine pamoate salt (Amorphous, ratio 2:1)]",Intrinsic dissolution rate,[2]; [7],0.021 mg/min/cm^2
same,BCS solubility classification,[2],Low
same,Solubility,"[4]; pH 1.2 medium, listed as R-ketamine pamoate salt (Ratio 2:1) Amorphous",1150 µg/mL
same,Solubility,"[4]; pH 4.5 medium, listed as R-ketamine pamoate salt (Ratio 2:1) Amorphous",990 µg/mL
same,Solubility,"[4]; pH 6.8 medium, listed as R-ketamine pamoate salt (Ratio 2:1) Amorphous",640 µg/mL
same,Solubility,"[4]; pH 7.4 medium, listed as R-ketamine pamoate salt (Ratio 2:1) Amorphous",950 µg/mL
"CN[C@@]1(c2ccccc2Cl)CCCCC1=O [R-ketamine pamoate salt (Crystal, ratio 2:1)]",Sedation or other ketamine-related psychotomimetic effects and nervous system disorders post administration,ICR mice,would not occur
same,Antidepressant effects on FST after single injection,[1],rapid-onset antidepressant effects
same,Intrinsic dissolution rate,[2]; [7],0.025 mg/min/cm^2
same,BCS solubility classification,[2],Low
same,Solubility,"[4]; pH 1.2 medium, listed as R-ketamine pamoate salt (Ratio 2:1) Crystal",1090 µg/mL
same,Solubility,"[4]; pH 4.5 medium, listed as R-ketamine pamoate salt (Ratio 2:1) Crystal",1180 µg/mL
same,Solubility,"[4]; pH 6.8 medium, listed as R-ketamine pamoate salt (Ratio 2:1) Crystal",400 µg/mL
same,Solubility,"[4]; pH 7.4 medium, listed as R-ketamine pamoate salt (Ratio 2:1) Crystal",510 µg/mL
"CN[C@]1(c2ccccc2Cl)CCCCC1=O.Cl [S-ketamine HCl, S-ketamine hydrochloride, reference compound]",Intrinsic dissolution rate,[2]; [7],2.248 mg/min/cm^2
same,BCS solubility classification,[2],High
"CN[C@]1(c2ccccc2Cl)CCCCC1=O [S-ketamine pamoate salt (Amorphous, ratio 2:1)]",Intrinsic dissolution rate,[2]; [7],0.026 mg/min/cm^2
same,BCS solubility classification,[2],Low
same,Solubility,"[4]; pH 1.2 medium, listed as S-ketamine pamoate salt (Ratio 2:1) Amorphous",1000 µg/mL
same,Solubility,"[4]; pH 4.5 medium, listed as S-ketamine pamoate salt (Ratio 2:1) Amorphous",840 µg/mL
same,Solubility,"[4]; pH 6.8 medium, listed as S-ketamine pamoate salt (Ratio 2:1) Amorphous",480 µg/mL
same,Solubility,"[4]; pH 7.4 medium, listed as S-ketamine pamoate salt (Ratio 2:1) Amorphous",580 µg/mL
"CN[C@]1(c2ccccc2Cl)CCCCC1=O [S-ketamine pamoate salt (Crystal, ratio 2:1)]",Sedation or other ketamine-related psychotomimetic effects and nervous system disorders post administration,ICR mice,would not occur
same,Antidepressant effects on FST after single injection,[1],rapid-onset antidepressant effects
same,Intrinsic dissolution rate,[2]; [7],0.027 mg/min/cm^2
same,BCS solubility classification,[2],Low
same,Solubility,"[4]; pH 1.2 medium, listed as S-ketamine pamoate salt (Ratio 2:1) Crystal",1240 µg/mL
same,Solubility,"[4]; pH 4.5 medium, listed as S-ketamine pamoate salt (Ratio 2:1) Crystal",1610 µg/mL
same,Solubility,"[4]; pH 6.8 medium, listed as S-ketamine pamoate salt (Ratio 2:1) Crystal",390 µg/mL
same,Solubility,"[4]; pH 7.4 medium, listed as S-ketamine pamoate salt (Ratio 2:1) Crystal",500 µg/mL
